# Assays:
# BaF3 [1] = assay: cells; details: Mus musculus, BaF3, 72 h
# Description: Antiproliferative activity against mouse BaF3 cells harbouring xDFG (TRKA-G667C) mutation measured after 72 hrs by Cell-titer glo assay
# BaF3 [2] = assay: Antiproliferative activity against mouse BaF3 cells harbouring MPRIP-TRKA G595R mutant assessed as inhibition of cell growth measured after 72 hrs by CCK-8 method; assay type: functional, cell-based; details: BaF3, 72 h
# BaF3 [3] = assay: cells; details: Mus musculus, BaF3, 72 h; remark: listed apart in the source
# Description: Antiproliferative activity against mouse BaF3 cells harbouring MPRIP-TRKA G667C mutant assessed as inhibition of cell growth measured after 72 hrs by CCK-8 method
# [4] = target: High affinity nerve growth factor receptor (Homo sapiens, UniProt P04629)
# Description: Inhibition of TRKA (unknown origin) incubated for 1 hr in presence of ATP by ELISA method
# BaF3 [5] = assay type: functional, cell-based; details: Mus musculus
# BaF3 [6] = assay: Antiproliferative activity against mouse BaF3 cells harbouring MPRIP-TRKA G595R mutant assessed as inhibition of cell growth at 1000 nmol/L measured after 72 hrs by CCK-8 method relative to control; assay type: functional
# Sequence of High affinity nerve growth factor receptor (P04629 whole entry): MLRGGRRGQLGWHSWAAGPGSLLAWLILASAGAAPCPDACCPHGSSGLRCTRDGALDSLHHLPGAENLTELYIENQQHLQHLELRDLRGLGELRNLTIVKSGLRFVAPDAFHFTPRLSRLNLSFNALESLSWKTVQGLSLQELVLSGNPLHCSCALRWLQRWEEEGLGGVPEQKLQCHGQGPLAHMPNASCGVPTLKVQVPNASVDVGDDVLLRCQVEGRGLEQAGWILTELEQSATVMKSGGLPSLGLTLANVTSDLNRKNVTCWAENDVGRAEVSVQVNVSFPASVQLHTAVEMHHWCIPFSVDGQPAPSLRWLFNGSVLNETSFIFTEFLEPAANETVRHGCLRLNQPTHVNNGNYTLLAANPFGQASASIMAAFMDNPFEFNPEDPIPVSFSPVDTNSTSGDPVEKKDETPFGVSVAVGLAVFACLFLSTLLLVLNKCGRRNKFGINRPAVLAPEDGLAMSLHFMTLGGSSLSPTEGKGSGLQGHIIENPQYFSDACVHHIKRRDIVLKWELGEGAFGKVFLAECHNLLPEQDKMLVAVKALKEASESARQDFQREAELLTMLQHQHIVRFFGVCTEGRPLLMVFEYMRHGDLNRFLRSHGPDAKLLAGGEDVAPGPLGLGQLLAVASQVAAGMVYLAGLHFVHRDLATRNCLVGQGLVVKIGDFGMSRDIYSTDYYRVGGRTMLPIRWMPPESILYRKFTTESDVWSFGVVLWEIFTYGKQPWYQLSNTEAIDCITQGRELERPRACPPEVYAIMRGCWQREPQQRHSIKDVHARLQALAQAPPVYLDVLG
Structure (SMILES),IC50 (BaF3 [1]) [µM],IC50 (BaF3 [2]) [µM],IC50 (BaF3 [3]) [µM],also measured
C[C@H]1CNC(=O)c2cnn3ccc(nc23)N[C@H](C)c2cc(F)ccc2O1 [REPOTRECTINIB],0.015,–,–,–
C[C@@H]1CCc2ncc(F)cc2[C@H]2CCCN2c2ccn3ncc(c3n2)C(=O)N1 [SELITRECTINIB],0.124,0.0379,0.171,–
CC1CN(Cc2ccc(NC(=O)c3cc(N4CCC[C@@H]4c4cc(F)ccc4F)c[nH]c3=O)cc2)CCN1S(=O)(=O)N1CCOCC1 (stereo not given in full),–,> 1,0.112,IC50 [4]: 0.0016 µM
C[C@@H](N)COc1ccc(-c2cnc3ccc(N[C@H](C)c4cccc(F)c4)nn23)cc1 [TALETRECTINIB],–,–,–,IC50 (BaF3 [5]): 0.304 µM
CCCN(CCC)Cc1ccc(NC(=O)c2cc(N3CCC[C@@H]3c3cc(F)ccc3F)c[nH]c2=O)cc1,–,–,0.184,inhibition at 1 µM (BaF3 [6]): 45.2%

# Reference: ChEMBL document CHEMBL6182921, “Structural Optimization of Next-Generation TRK Inhibitors against Acquired Drug Resistance Mutations for the Treatment of Solid Tumors” (J Med Chem, 2025)
